Test results reported in patent US20240118267A1, “CELL CULTURE GROWTH APPARATUS AND METHOD OF UNDERSIDE ATTACHMENT TO A SURFACE USING CELL SEEDING” (Georgia Tech Research Corporation, priority 2021, published 2024).
Structures can show the parent of a compound that is named as a salt.

Columns and labels:
[1] = system: primary human neutrophils; assay: Neutrophil transmigration to chemoattractant or sample in 96-well co-culture, counted by flow cytometry; type: cell-based; settings: for number of counted transmigrated neutrophils versus chemoattractant dose: 3 healthy donors, 16 hours, two-way ANOVA p<0.0001
[2] = Sodium fluorescein permeability across epithelial-endothelial co-culture; type: in vitro ADME; settings: human
HUVEC = assay: Tolerance of HUVEC to puromycin in routine culture; type: cell-based, human; settings: long time periods; unpublished observation
Excerpt: HUVEC maintenance in T-75 flasks. Primary Human Umbilical Vein Endothelial Cells were employed from ATCC (ATCC® PCS-100-013™) and expanded according to manufacturer instructions in Vascular Cell Basal Medium (ATCC® PCS-100-030™) supplemented with Endothelial Cell Growth Kit-VEGF (ATCC® PCS-100-041™) with added Penicillin-Streptomycin (Gibco™ 15140148) diluted 1:100 v:v. HUVECs were transduced to constitutively express RFP. […] Cells were passaged at 60-80% confluence according to manufacturer instructions, counted with Nexcelcom Cellometer Auto T4 Bright Field Cell Counter (Nexcelcom Bioscience) using Trypan Blue viability stain, and used below the passage 10 since expanding from ATCC.
Lentiviral transduction. H441 cells and HUVECs were transduced with lentivirus to constitutively express GFP and RFP, respectively. H441 cells were seeded in T-75 flasks at 0.75e6 cells/75 cm^2 and allowed to attach overnight. Then H441 cells were inoculated with GFP gene-bearing lentivirus with puromycin resistance (Brand, product #). Lentivirus (8 TU/cell) was suspended in H441 routine culture media with the addition of transfection reagent polybrene ([…]). The cells were inoculated overnight and then allowed to recover in routine cell culture media for 72 hours with media changes every 48 hours. […]

[3] = system: endothelium of H441-HUVEC co-culture; assay: Endothelial von Willebrand factor release after epithelial exposure; type: cell-based, human; settings: epithelial side exposed for 10 minutes
Procedure: Staining and imaging. All stains used reagents from ThermoFisher's Image-iT™ Fixation/Permeabilization Kit (R37602) for washing, fixing, blocking, and permeabilization. For all stains, inserts were cut out and fixed on glass slides for 10 minutes at 37° C. For stains requiring permeabilization, the inserts were incubated with 0.5% Triton X (ImageIT kit) for 5 minutes at 37° C. All inserts were blocked for 1 hour at 37° C., counterstained with DAPI (1:1000 in PBS for 5 minutes) and mounted between two coverslips with ProLong™ Diamond Antifade Mountant (Invitrogen). F-actin. After fixation, permeabilization, and blocking, inserts were incubated for 1 hour at 37° C. in Alexa Fluor™ 647 Phalloidin (Invitrogen) diluted 1:20 from stock solution in 1% BSA (Image-iT™). ZO-1/e-cadherin co-stain. After fixation, permeabilization, and blocking, the primary antibodies (ZO-1 Rabbit anti-human polyclonal antibody, ThermoFisher 61-7300, 1:200; e-cadherin Mouse anti-human monoclonal antibody, ThermoFisher 13-1700, 1:2000) were suspended together in 1% BSA (Image-It Kit) and co-incubated with the inserts for 2 hours at 37° C. The secondary antibodies (Goat anti-Rabbit IgG, Alexa Fluor 405, Abcam ab 175665, 1:200; Goat anti-mouse IgG, Alexa Fluor 647, ThermoFisher A32728, 1:500) were suspended in 1% BSA and incubated with the filters for 2 hours at 37° C. […]

[4] = system: endothelium of H441-HUVEC co-culture; assay: IL-8 on the endothelial side of the H441/HUVEC co-culture (ELISA); type: cell-based, human; settings: 24-hour exposure on the epithelial side
Procedure: Then, IL-8 produced on the endothelial side was measured by ELISA (R&D Systems). […] Statistics were performed in GraphPad Prism 9.
Cytokine quantitation. Cell culture supernatants were collected at specified intervals. IL-6 and IL-8 were quantified with ELISA assays according to manufacturer instructions (Human IL-6 DuoSet ELISA, R&D Systems DY206-05; Human IL-8/CXCL8 DuoSet ELISA, R&D Systems, DY208-05; DuoSet ELISA Ancillary Reagent Kit 2, R&D Systems; DY008.

CCCCC/C=C\C[C@@H](O)/C=C/C=C/C=C\[C@@H](O)CCCC(=O)O [LTB4, leukotriene B4]
number of counted transmigrated neutrophils versus chemoattractant dose [1]: effect of chemoattractant dose

O=C1OC2(c3ccc(O)cc3Oc3cc(O)ccc32)c2ccccc21 [NaFL, Fluorescein sodium salt]
Papp at 2 h, 30 µM ([2]; H441/HUVEC co-culture at ALI, S.D. 1.63e-5 cm/s, 95% CI 1.53e-6-1.25e-5 cm/s): 7.04 ×10⁻⁶ cm/s
Papp at 3 h, 30 µM ([2]; control, no exposure, at ALI, over a 3-hour period, n=4, read-out: permeability of the control bilayer co-culture): 7.04 ×10⁻⁶ cm/s

COc1ccc(C[C@H](N)C(=O)N[C@H]2[C@@H](O)[C@H](n3cnc4c(N(C)C)ncnc43)O[C@@H]2CO)cc1 [puromycin]
tolerance by HUVEC in routine culture medium (HUVEC): did not tolerate it well for long time periods

IL-8: recombinant human protein IL-8 (HEK-expressed, activity tested), chemoattractant
number of counted transmigrated neutrophils versus chemoattractant dose [1]: effect of chemoattractant dose
neutrophil transmigration numbers versus concentration ([1]; 18 hour transmigration time): increase

polyinosinic:polycytidylic acid [poly(I:C)]
endothelial von Willebrand factor (VWF) exocytosis [3]: immediately exocytosed von Willebrand factor
endothelial release of IL-8 [4]: weakly dose-dependent
